Reference: ChEMBL document CHEMBL4837266, “Ugi Reaction Synthesis of Oxindole-Lactam Hybrids as Selective Butyrylcholinesterase Inhibitors” (ACS Med Chem Lett, 2021)

Key:
[1] = molecular target: T1, Amine oxidase [flavin-containing] A (Homo sapiens, UniProt P21397); assay: Inhibition of recombinant MAO-A (unknown origin) assessed as reduction in 4-hydroxyquinoline level using kynuramine as a substrate at 1 uM incubated for 20 mins by discontinuous fluorimetric assay relative to control
T1 sequence (P21397 whole entry): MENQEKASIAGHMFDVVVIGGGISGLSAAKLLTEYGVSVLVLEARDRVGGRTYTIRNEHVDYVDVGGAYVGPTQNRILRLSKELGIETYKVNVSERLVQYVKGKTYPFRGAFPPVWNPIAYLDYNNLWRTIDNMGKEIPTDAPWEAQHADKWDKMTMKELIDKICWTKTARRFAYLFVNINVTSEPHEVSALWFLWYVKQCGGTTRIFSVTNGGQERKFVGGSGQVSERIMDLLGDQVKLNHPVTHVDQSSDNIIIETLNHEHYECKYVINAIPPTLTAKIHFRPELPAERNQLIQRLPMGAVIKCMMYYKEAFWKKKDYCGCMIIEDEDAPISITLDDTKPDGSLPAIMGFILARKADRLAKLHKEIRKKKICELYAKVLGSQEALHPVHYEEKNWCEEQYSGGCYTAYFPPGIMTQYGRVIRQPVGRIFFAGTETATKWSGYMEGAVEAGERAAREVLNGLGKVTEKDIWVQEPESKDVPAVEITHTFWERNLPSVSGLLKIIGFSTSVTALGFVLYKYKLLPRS

[2] = molecular target: T2, Amine oxidase [flavin-containing] B (Homo sapiens, UniProt P27338); assay: Inhibition of recombinant MAO-B (unknown origin) assessed as reduction in 4-hydroxyquinoline level using kynuramine as a substrate at 1 uM incubated for 20 mins by discontinuous fluorimetric assay relative to control; settings: read-out: INH
T2 sequence (P27338 whole entry): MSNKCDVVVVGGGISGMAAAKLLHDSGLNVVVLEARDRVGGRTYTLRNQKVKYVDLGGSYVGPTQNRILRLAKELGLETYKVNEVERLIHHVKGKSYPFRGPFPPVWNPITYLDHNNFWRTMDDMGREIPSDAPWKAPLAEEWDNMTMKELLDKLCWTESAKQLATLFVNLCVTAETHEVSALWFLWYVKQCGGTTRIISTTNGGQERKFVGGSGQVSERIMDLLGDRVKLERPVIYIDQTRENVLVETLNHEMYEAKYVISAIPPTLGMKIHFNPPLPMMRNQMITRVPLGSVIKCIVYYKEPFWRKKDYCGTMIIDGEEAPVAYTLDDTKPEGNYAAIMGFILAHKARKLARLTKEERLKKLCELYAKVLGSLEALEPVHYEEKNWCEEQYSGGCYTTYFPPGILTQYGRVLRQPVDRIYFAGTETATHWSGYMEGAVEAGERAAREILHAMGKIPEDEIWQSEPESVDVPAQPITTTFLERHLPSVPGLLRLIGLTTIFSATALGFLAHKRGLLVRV

Cholinesterase [3] = molecular target: T3, Cholinesterase (Equus caballus, UniProt P81908); assay: Inhibition of equine serum BuChE using S-butyrylthiocholine iodide as a substrate measured for 125 secs by DNTB reagent based Ellman's method; assay type: cell-free
Cholinesterase [4] = molecular target: T3, Cholinesterase; assay: Mixed type inhibition of equine serum BuChE using S-butyrylthiocholine iodide as a substrate by Cornish-Bowden plot analysis; assay type: cell-free
Acetylcholinesterase [5] = molecular target: T4, Acetylcholinesterase (Electrophorus electricus, UniProt O42275); assay: Inhibition of electric eel AChE using […] as a substrate by Cornish-Bowden plot analysis
Acetylcholinesterase [6] = molecular target: T4, Acetylcholinesterase; assay: Inhibition of electric eel AChE using […] as a substrate measured for 125 secs by DNTB reagent based Ellman's method

T4 sequence (O42275 whole entry): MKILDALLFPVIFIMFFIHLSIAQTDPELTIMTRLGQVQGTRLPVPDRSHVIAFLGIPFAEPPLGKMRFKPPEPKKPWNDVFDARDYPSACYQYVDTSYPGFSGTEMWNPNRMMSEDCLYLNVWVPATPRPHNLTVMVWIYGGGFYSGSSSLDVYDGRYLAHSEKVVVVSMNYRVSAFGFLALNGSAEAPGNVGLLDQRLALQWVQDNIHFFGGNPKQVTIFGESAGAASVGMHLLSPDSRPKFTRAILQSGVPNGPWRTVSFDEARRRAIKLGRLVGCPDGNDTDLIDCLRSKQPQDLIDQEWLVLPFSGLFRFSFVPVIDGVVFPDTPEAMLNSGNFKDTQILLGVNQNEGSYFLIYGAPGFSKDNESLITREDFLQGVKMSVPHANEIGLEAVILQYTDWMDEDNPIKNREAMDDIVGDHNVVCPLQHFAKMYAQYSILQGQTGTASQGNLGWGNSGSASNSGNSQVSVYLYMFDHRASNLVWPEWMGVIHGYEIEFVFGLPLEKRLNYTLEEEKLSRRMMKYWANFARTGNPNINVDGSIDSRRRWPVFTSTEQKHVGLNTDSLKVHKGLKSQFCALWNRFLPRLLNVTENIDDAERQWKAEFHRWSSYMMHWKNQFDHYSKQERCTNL
T3 sequence (P81908 whole entry): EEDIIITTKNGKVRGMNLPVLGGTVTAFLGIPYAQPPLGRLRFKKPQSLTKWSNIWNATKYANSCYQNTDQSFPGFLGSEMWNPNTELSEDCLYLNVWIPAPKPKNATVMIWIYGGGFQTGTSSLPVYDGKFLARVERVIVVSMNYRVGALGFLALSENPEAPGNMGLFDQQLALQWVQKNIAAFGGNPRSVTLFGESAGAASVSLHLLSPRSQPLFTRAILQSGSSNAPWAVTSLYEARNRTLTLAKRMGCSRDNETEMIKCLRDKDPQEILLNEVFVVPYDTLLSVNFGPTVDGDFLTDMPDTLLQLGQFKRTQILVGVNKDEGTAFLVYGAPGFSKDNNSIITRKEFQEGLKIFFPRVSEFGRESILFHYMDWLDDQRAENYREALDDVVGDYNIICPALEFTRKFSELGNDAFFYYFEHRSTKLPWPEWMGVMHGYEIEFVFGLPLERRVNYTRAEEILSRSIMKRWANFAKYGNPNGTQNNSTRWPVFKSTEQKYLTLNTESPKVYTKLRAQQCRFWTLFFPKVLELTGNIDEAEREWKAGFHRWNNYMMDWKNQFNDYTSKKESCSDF

Work on C#CCN1C(=O)C(C(=O)NC(C)(C)C)(N2CCC2=O)c2ccccc21 (stereo not drawn) yielded an inhibition at 1 µM [1] of 5.9% and an inhibition at 1 µM [2] of 7.4%.
Work on CC(C)(C)NC(=O)C1(N2CCCC2=O)C(=O)Nc2ccc(Br)cc21 (stereo not drawn) yielded an IC50 (Cholinesterase [3]) of over 100 µM.
Work on CC(C)(C)NC(=O)C1(N2CCC2=O)C(=O)N(c2ccccc2)c2ccccc21 (stereo not drawn) yielded an IC50 (Cholinesterase [3]) of 22 µM.
For CC(C)(C)NC(=O)C1(N2CCC2=O)C(=O)Nc2c(C(F)(F)F)cccc21 (stereo not drawn), the IC50 (Cholinesterase [3]) was over 100 µM.
Compound CC(C)(C)NC(=O)C1(N2CCC2=O)C(=O)Nc2ccc([N+](=O)[O-])cc21 (stereo not drawn) has an IC50 (Cholinesterase [3]) of over 100 µM.
In the case of CC(C)(C)NC(=O)C1(N2CCCC2=O)C(=O)Nc2ccccc21 (stereo not drawn), the IC50 (Cholinesterase [3]) is reported as 54 µM.
Work on CN1C(=O)C(C(=O)NC(C)(C)C)(N2CCCC2=O)c2ccccc21 (stereo not drawn) yielded an IC50 (Cholinesterase [3]) of over 100 µM.
With O=C1CCCN1C1(C(=O)NC2CCCCC2)C(=O)Nc2ccccc21 (stereo not drawn) the IC50 (Cholinesterase [3]) was 44 µM.
For CC(C)(C)NC(=O)C1(N2CCCC2=O)C(=O)N(c2ccccc2)c2ccccc21 (stereo not drawn), the Ki (Cholinesterase [4]) was 18 µM, the Ki (Acetylcholinesterase [5]) was 6.1 µM and the IC50 (Cholinesterase [3]) was 6.2 µM.
C#CCN(C)CCCOc1ccc(Cl)cc1Cl [CLORGILINE] showed an inhibition at 1 µM [1] of 100%.
For Cc1cc(C)c2c(c1)C(C(=O)NC(C)(C)C)(N1CCC1=O)C(=O)N2 (stereo not drawn), the IC50 (Cholinesterase [3]) was 57 µM.
CC(C)(C)NC(=O)C1(N2CCC2=O)C(=O)Nc2ccc(I)cc21 (stereo not drawn) gave an IC50 (Cholinesterase [3]) of 80 µM.
In the case of CC(C)(C)NC(=O)C1(N2CCCC2=O)C(=O)Nc2ccc([N+](=O)[O-])cc21 (stereo not drawn), the IC50 (Acetylcholinesterase [6]) is reported as 45 µM and the IC50 (Cholinesterase [3]) is reported as 94 µM.
C#CCN1C(=O)C(C(=O)NCc2ccccc2)(N2CCC2=O)c2ccccc21 (stereo not drawn) showed an inhibition at 1 µM [1] of 8.9%, an inhibition at 1 µM [2] of 7.6% and an IC50 (Cholinesterase [3]) of over 100 µM.
With CC(C)(C)CC(C)(C)NC(=O)C1(N2CCC2=O)C(=O)Nc2ccccc21 (stereo not drawn) the IC50 (Cholinesterase [3]) was 42 µM.
Compound CC(C)(C)CC(C)(C)NC(=O)C1(N2CCCC2=O)C(=O)Nc2ccccc21 (stereo not drawn) has an IC50 (Acetylcholinesterase [6]) of over 100 µM, a Ki (Cholinesterase [4]) of 15 µM and a Ki (Acetylcholinesterase [5]) of 7.4 µM. The IC50 (Cholinesterase [3]) was 8.4 µM.
CC(C)(C)NC(=O)C1(N2CCCC2=O)C(=O)Nc2ccc(I)cc21 (stereo not drawn) gave an IC50 (Cholinesterase [3]) of 68 µM.
In the case of CC(C)(C)NC(=O)C1(N2CCCC2=O)C(=O)N(Cc2ccccc2)c2ccccc21 (stereo not drawn), the IC50 (Cholinesterase [3]) is reported as 32 µM.
C[C@H](NCc1ccc(OCc2cccc(F)c2)cc1)C(N)=O [SAFINAMIDE] was tested, and the inhibition at 1 µM [1] was -1.6%.
With CC(C)(C)NC(=O)C1(N2CCC2=O)C(=O)Nc2ccccc21 (stereo not drawn) the IC50 (Cholinesterase [3]) was over 100 µM.
C#CCN1C(=O)C(C(=O)NCc2ccccc2)(N2CCCC2=O)c2ccccc21 (stereo not drawn) was tested, and the inhibition at 1 µM [1] was 13.2%, the inhibition at 1 µM [2] was 6.1% and the IC50 (Cholinesterase [3]) was over 100 µM.
Compound CC(C)(C)NC(=O)C1(N2CCC2=O)C(=O)N(Cc2ccccc2)c2ccccc21 (stereo not drawn) has an IC50 (Cholinesterase [3]) of 51 µM.
With Cc1cc(C)c2c(c1)C(C(=O)NC(C)(C)C)(N1CCCC1=O)C(=O)N2 (stereo not drawn) the IC50 (Cholinesterase [3]) was over 100 µM.
CC(C)(C)NC(=O)C1(N2CCC2=O)C(=O)Nc2ccc(Br)cc21 (stereo not drawn) showed an IC50 (Cholinesterase [3]) of over 100 µM.
With CN1C(=O)C(C(=O)NC(C)(C)CC(C)(C)C)(N2CCCC2=O)c2ccccc21 (stereo not drawn) the IC50 (Cholinesterase [3]) was 18 µM.
CC(C)(C)CC(C)(C)NC(=O)C1(N2CCC2=O)C(=O)N(Cc2ccccc2)c2ccccc21 (stereo not drawn) was tested, and the IC50 (Acetylcholinesterase [6]) was over 100 µM, the Ki (Cholinesterase [4]) was 4.8 µM and the Ki (Acetylcholinesterase [5]) was 1.8 µM. It also gave an IC50 (Cholinesterase [3]) of 1.8 µM.
O=C1CCN1C1(C(=O)NCc2ccccc2)C(=O)Nc2ccccc21 (stereo not drawn) was tested, and the IC50 (Acetylcholinesterase [6]) was over 100 µM and the IC50 (Cholinesterase [3]) was over 100 µM.
In the case of O=C1CCCN1C1(C(=O)NCc2ccccc2)C(=O)Nc2ccccc21 (stereo not drawn), the IC50 (Cholinesterase [3]) is reported as 71 µM.
